Results on one compound are retold here after patent US12721906B2, “Kidney targeted delivery of drugs” (The Brigham and Women's Hospital, Inc., priority 2020, dated 2026).

The target in experiment [1] is megalin (Mus musculus, UniProt A2ARV4). The protocol: Female C57BL/6 mice were divided into two groups. The first group (n=4) was treated subcutaneously with 100 mg/kg Cilastatin sodium salt (>98%, Sigma Aldrich, USA) once daily for 4 days, and the second group (n=3) was treated subcutaneously with DPBS for 4 days. On the day of the last treatment, the LC-NP was injected to the mice. 1 day post injection the mice were euthanized and perfused with DPBS, and the kidneys were harvested and imaged.
Without being bound by any particular theory, it was hypothesized that the accumulation of LC-NP in the PTECs of the kidney is dependent on its binding to megalin. To test this hypothesis, the mice were treated with cilastatin or vehicle (DPBS) for 4 days prior to injection of LC-NP. Cilastatin, an inhibitor of renal dehydropeptidase-I (DHP-I), blocks megalin-mediated uptake in the kidney through competitive inhibition^33. 24 hours post-injection of LC-NP, the mice were euthanized and the major organs were harvested for imaging. […] Next, the specific effect of cilastatin on the binding of LC-NPs to PTECs was examined by treating HK-2 human PTECs in vitro directly with LC-NPs and cilastatin.

Experiment [2] concerns the target T1, megalin (Homo sapiens, UniProt P98164).
T1 construct: effective knockdown of megalin expression in HK-2 cells was performed using siRNA directed against the megalin gene; host or cells: HK-2 human kidney proximal tubular epithelial cells
The experiment in a line: Uptake of LC-NPs by HK-2 cells after cilastatin or megalin siRNA. Conditions: in vitro. Format: cell-based. From the text: FIG. 4G-FIG. 4I. […] FIG. 4H: LC-NPs underwent lower uptake by HK-2 cells treated with cilastatin than vehicle (DPBS)-treated cells. […] Values are means±SD. means±SD. **P<0.01, and ***P<0.001 and ns: not significant as calculated by two-tailed Student's t-test.

megalin (Mus musculus, UniProt A2ARV4), sequence (A2ARV4 26-4660): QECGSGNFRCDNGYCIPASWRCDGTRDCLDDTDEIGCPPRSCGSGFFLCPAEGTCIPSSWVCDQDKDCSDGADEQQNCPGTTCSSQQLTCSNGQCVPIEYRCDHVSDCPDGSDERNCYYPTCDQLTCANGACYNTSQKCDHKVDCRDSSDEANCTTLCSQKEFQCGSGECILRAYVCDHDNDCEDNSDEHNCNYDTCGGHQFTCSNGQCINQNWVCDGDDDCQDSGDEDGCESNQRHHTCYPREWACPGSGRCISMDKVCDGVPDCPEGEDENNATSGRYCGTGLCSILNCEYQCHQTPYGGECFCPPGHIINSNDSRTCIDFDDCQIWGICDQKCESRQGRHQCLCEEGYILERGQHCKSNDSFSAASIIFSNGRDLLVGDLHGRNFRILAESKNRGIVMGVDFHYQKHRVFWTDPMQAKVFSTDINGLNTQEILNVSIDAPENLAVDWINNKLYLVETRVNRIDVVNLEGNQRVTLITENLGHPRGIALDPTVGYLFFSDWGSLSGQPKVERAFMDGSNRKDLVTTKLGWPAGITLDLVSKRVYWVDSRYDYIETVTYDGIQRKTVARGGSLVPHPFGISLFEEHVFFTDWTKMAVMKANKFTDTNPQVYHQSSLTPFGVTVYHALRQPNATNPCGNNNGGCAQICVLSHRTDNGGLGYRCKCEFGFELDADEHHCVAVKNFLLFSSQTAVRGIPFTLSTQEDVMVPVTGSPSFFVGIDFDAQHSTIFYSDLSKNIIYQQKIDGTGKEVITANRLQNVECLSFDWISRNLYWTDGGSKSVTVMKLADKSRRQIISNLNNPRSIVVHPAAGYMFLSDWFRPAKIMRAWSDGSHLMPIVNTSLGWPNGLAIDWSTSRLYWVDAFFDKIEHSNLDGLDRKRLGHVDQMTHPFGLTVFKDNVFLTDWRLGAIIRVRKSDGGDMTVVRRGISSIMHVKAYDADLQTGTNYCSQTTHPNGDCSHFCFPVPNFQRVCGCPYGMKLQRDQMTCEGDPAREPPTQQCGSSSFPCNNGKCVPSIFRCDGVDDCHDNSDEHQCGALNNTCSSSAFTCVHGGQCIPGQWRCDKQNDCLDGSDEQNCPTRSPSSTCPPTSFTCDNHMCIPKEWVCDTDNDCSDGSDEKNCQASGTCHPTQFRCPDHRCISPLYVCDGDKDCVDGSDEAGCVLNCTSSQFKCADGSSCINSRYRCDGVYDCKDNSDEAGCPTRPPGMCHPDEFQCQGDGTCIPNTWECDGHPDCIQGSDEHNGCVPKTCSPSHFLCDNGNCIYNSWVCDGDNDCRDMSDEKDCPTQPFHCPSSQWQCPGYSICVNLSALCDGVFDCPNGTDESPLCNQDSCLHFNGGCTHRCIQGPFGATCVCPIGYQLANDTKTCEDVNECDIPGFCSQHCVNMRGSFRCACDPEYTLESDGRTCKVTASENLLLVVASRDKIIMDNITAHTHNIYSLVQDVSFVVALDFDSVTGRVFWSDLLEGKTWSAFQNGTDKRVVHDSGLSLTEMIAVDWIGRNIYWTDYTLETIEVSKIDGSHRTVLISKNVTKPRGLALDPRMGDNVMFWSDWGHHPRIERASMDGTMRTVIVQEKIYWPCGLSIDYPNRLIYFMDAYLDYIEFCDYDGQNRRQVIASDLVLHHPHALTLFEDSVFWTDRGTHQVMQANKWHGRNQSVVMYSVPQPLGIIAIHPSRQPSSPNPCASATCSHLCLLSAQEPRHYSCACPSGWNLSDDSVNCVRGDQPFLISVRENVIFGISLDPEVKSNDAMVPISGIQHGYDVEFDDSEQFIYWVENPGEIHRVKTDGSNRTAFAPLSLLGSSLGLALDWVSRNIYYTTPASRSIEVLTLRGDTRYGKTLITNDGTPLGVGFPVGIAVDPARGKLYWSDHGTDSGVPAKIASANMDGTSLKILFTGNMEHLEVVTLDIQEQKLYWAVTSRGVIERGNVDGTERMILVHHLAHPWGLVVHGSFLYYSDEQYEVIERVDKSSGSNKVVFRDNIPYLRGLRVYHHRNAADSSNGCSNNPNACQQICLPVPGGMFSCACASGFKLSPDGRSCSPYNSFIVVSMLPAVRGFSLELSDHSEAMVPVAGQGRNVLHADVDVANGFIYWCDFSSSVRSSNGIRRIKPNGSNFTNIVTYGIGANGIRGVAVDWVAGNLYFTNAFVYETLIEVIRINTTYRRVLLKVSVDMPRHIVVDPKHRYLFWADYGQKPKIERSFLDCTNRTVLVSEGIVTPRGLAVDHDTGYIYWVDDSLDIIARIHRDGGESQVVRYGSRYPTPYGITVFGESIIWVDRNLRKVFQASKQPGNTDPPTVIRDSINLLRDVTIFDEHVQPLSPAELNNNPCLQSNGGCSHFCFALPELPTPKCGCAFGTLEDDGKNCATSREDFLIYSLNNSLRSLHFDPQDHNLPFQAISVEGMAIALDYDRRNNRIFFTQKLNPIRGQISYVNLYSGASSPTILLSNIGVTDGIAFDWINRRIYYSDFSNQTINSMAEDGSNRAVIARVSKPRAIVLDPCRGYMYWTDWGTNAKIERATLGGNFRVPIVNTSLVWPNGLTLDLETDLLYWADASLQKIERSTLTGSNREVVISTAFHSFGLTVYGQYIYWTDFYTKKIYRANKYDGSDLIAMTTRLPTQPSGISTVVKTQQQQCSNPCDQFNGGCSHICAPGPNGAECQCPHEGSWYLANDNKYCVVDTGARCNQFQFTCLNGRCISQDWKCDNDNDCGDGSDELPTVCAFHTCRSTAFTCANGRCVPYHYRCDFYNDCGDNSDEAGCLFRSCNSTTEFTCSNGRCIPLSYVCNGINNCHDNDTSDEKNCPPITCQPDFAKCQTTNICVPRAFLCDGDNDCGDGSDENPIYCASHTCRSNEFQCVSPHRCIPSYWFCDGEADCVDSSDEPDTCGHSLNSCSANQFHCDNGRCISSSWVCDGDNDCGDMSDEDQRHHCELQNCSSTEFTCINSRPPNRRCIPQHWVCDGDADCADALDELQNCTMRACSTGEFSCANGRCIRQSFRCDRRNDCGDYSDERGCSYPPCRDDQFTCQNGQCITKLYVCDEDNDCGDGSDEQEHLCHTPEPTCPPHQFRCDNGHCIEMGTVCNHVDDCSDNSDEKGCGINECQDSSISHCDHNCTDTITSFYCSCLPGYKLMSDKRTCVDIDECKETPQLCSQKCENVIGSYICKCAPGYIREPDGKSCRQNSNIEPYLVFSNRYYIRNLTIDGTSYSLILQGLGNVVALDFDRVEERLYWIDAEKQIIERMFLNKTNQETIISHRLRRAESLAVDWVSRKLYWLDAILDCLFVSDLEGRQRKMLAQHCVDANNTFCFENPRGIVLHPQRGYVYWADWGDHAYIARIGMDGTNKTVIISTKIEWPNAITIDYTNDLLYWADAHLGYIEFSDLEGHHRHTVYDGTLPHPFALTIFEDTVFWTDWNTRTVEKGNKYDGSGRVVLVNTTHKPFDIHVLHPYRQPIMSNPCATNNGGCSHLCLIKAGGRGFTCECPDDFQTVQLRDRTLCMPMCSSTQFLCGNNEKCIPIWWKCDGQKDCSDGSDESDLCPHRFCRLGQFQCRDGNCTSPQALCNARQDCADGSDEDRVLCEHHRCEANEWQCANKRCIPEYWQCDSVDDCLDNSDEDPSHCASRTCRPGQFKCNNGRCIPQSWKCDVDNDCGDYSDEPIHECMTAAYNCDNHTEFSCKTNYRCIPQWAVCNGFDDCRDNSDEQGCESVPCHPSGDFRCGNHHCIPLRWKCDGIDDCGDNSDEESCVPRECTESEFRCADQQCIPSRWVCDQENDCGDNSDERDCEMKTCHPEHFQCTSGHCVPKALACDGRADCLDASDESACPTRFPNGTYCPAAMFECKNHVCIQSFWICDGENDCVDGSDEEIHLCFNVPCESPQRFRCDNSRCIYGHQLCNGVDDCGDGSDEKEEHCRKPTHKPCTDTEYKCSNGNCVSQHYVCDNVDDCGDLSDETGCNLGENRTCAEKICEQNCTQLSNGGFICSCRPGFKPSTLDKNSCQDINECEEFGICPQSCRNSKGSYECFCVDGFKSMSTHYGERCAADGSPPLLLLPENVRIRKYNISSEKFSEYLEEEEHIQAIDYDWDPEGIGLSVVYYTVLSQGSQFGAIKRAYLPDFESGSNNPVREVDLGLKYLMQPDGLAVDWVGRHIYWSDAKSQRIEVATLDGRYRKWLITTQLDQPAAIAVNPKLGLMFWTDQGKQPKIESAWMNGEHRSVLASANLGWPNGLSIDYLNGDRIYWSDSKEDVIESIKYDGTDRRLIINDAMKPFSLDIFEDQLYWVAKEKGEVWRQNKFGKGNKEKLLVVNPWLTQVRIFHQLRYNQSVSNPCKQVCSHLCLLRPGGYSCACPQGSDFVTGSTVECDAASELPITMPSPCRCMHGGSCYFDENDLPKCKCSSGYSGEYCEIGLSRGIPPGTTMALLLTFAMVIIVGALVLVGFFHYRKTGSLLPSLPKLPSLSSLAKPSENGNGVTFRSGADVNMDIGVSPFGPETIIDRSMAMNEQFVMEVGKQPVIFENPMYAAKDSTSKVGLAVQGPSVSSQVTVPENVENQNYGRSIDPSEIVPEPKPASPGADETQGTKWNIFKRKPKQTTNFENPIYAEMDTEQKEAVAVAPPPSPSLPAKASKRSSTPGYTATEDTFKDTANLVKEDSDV

As to `CC1(C)C[C@@H]1C(=O)N/C(=C\CCCCSC[C@H](N)C(=O)O)C(=O)O` [cilastatin, Cilastatin], the “kidney MFI of LC-NP, cilastatin-treated vs vehicle-treated mice” value at megalin [1] (cilastatin 4 days before LC-NP, 24 hours post-injection) is “significantly lower”. In addition, the “kidney MFI of NPs, cilastatin-treated vs vehicle-treated mice” value at megalin [1] (mice injected with NPs) is “no statistical difference”. Further, the “number of LC-NPs taken up by HK-2 cells, with vs without cilastatin” value on megalin [2] is “significantly lower”.
